Data from PMC8597634, “4-Iminooxazolidin-2-One as a Bioisostere of Cyanohydrin Suppresses EV71 Proliferation by Targeting 3C^pro” (Microbiology Spectrum, 2021).
Read-outs that look alike come from different tables or passages of the source.

Legend:
[1] = cited from earlier work
HRV = tested on: HRV; set-up: method as in PMID 20066739, PMID 21536800, PMID 23295352, PMID 23633597; conditions: cited from earlier work
EV71 [2] = conditions: cited from earlier work
EV71 3C^pro [3] = target: T1, EV71 3C^pro (Human enterovirus 71, UniProt Q66478); test: Inhibitor constant (Ki) enzymatic FRET assay; type: biochemical; conditions: 0.5 μM EV71 3C^pro, 100 μM peptide, 2 h
T1 construct: The EV71 3C^pro plasmid was amplified and linked into a pET-28a vector; 6xHis; made in house; host or cells: Escherichia coli
Protocol: The inhibitor constants (Kis) were determined by fluorescence resonance energy transfer (FRET) using NMA-IEALFQGPPK(DNP)FR peptide. The assays were performed with 50 mM Tris-HCl–150 mM NaCl (pH 7.0) with 0.5 μM EV71 3C^pro and gradient-diluted FOPMC/FIOMC. Subsequently, 100 μM each peptide was hydrolyzed for 2 h. The fluorescence signals were monitored at a microplate reader (Perkin Elmer, USA).

[4] = tested on: EV71 genotype C Fuyang virus; test: qRT-PCR of viral genome replication, EV71 Fuyang virus in RD cells; type: cell-based; conditions: Enterovirus A, 24 hpi
Protocol: (§1) The viral genome replication inhibition in host cells after treatment with FOPMC and FIOMC was monitored by EV71 genotype C Fuyang virus. Briefly, RD cells were cultured at 1.5 × 10^5 per well at 37°C for 24 h and then incubated with gradient-diluted FOPMC, FIOMC, and virus. The intracellular RNAs were extracted using TRIzol (TransGen, China) after 24 hpi. The real-time quantitative PCR (qRT-PCR) assays were performed with a SYBR RT-PCR kit (Bio-Rad, USA) for the EV71 5′ […] region (UTR) and the host GAPDH. The transcript copies of EV71 5′ UTR and GAPDH were calculated using the threshold cycle (ΔΔCT) method ([35]).

EV71-luciferase virus [5] = test: EC50 with EV71-luciferase virus on RD cells; type: cell-based; conditions: Enterovirus A, 24 h
Protocol: (§2) One hundred microliters each of RD (3 × 10^5 cells/ml), VeroE6 (3 × 10^5 cells/ml), and HEK-293T cells (2 × 10^5 cells/ml) was cultured overnight. Each 96-well plate of cells was treated with EV71-luciferase virus and diluted FOPMC/FIOMC (diluted from 3 nM to 20 μM) for 24 h. The luciferase signals were tested using the firefly luciferase kit (Promega, USA). All of the EC50s were profiled by Graph Pad Prism 7.0.

EV71-luciferase virus [6] = test: EC50 with EV71-luciferase virus on HEK-293T cells; type: cell-based; conditions: Enterovirus A, EV71, HEK-293T, 24 h
Protocol: as §2

EV71-luciferase virus [7] = test: EC50 with EV71-luciferase virus on VeroE6 cells; type: cell-based; conditions: Enterovirus A, EV71, Vero C1008, 24 h
Protocol: as §2

RD cells = test: Cytotoxicity (CellTiter-Glo) on RD cells; type: cell-based, human; conditions: even at 200 μM, 48 h
Protocol: (§3) Determination of the cytotoxicity of FOPMC and FIOMC was performed on three cell lines using a CellTiter-Glo kit (Promega, USA). Briefly, RD, VeroE6, and HEK-293T cells were treated with gradient dilutions of […] (from 0.78 to 200 μM) for 48 h. CellTiter-Glo reagents were applied to evaluate the cells' viability by a microplate reader.

HEK-293T cells = test: Cytotoxicity (CellTiter-Glo) on HEK-293T cells; type: cell-based; conditions: even at 200 μM, 48 h
Protocol: as §3

VeroE6 cells = test: Cytotoxicity (CellTiter-Glo) on VeroE6 cells; type: cell-based; conditions: even at 200 μM, 48 h
Protocol: as §3

EV71-A = test: Antiviral activity by qRT-PCR in RD cells, EV71-A; type: cell-based; conditions: Enterovirus A
Protocol: as §1
(§4) To evaluate the antiviral effect of FOPMC and FIOMC on various viral strains, we measured the EC50s of these two inhibitors on five virus strains. RD cells were treated with FOPMC/FIOMC (0.003 to 50 μM) and each viral strain for 2 h. The antiviral activity was conducted by qRT-PCR according to the method described above.

EV71-B = test: Antiviral activity by qRT-PCR in RD cells, EV71-B; type: cell-based; conditions: Enterovirus A
Protocol: as §1, §4

EV71-C = test: Antiviral activity by qRT-PCR in RD cells, EV71-C; type: cell-based; conditions: Enterovirus A
Protocol: as §1, §4

CVA16 = test: Antiviral activity by qRT-PCR in RD cells, CVA16; type: cell-based, coxsackievirus A16; conditions: Enterovirus A
Protocol: as §1, §4

CVB3 = test: Antiviral activity by qRT-PCR in RD cells, CVB3; type: cell-based, coxsackievirus B3; conditions: Enterovirus B
Protocol: as §1, §4

five viral strains = test: Antiviral activity on five viral strains (summary in discussion); type: cell-based; conditions: read-out: EC50s depending on the specific virus
Protocol: as §4

EV71-GFP = test: Phenotype assay with EV71-GFP reporter virus in RD cells; type: cell-based; conditions: 0.16 to 20 μM, 24 h
Protocol: RD cells (3 × 10^4 per well) were cultured in 96-well plates overnight. Diluted compounds (0.16 to 20 μM) and EV71-GFP reporter virus were added to RD cells. After 24 hpi, the GFP was monitored using confocal microscopy (Olympus, Japan).

EV71 VP1 = test: Expression of EV71 VP1 in RD cells; type: cell-based; conditions: GAPDH invariable
EV71-luciferase virus [8] = test: Time-of-addition assay with EV71-luciferase virus in RD cells; type: cell-based; conditions: −6 to 10 hpi, FOPMC 5 μM, FIOMC 5 μM, GPP3 1 μM
pEV71-replicon RNA = pEV71-replicon RNA assay in RD cells; type: cell-based, EV71; conditions: RD cells transfected with pEV71-replicon RNA, 5 μM
Protocol: RD cells (3 × 10^4 per well) were treated with FOPMC (5 μM), FIOMC (5 μM), GPP3 (1 μM), NK-1.8k (2 μM), and EV71-luciferase virus, respectively. Another plate of RD cells was treated with the same concentrations of the four inhibitors and transfected with pEV71-replicon RNA. After 24 hpi, the luciferase activity was determined using Bright-Glo luciferase substrate (Promega, USA).

EV71 3C^pro [9] = target: T1, EV71 3C^pro; test: Hydrolytic activity inhibition of EV71 3C^pro on precursor 3BC (SDS-PAGE); type: biochemical; conditions: 100 μM 3C^pro, molar ratio 1:5, GST-3BC-C147A 50 μM
Protocol: To ascertain whether FOPMC and FIOMC inactivated EV71 3C^pro to hydrolyze the precursor 3BC, the fusion protein GST-3BC with a catalytic central residue C147A mutation was expressed. A 100 μM concentration of EV71 3C^pro and FOPMC/FIOMC (at a molar ratio of 1:5) was incubated at 30°C for 2 h. GST-3BC (50 μM) protein was added for another 4 h, and the reagents were analyzed using SDS-PAGE.

EV71 [10] = test: Selection of resistant virus by continuous culture of EV71; type: cell-based; conditions: EV71 cultured for 20 rounds, sequence analyses
[11] = cited from earlier work; remark: listed apart in the source
EV-D68 = tested on: EV-D68; set-up: method as in PMID 25554786; conditions: cited from earlier work

Compound: Cc1cc(C(=O)NC(Cc2ccc(F)cc2)C(=O)NC(CC2CCCNC2=O)C(O)C#N)no1 [(R)-1, reference compound]
- half-life [t1/2] in human plasma [1]: 11 min

Compound: CCOC(=O)/C=C/[C@H](C[C@@H]1CCNC1=O)NC(=O)[C@@H](CC(=O)[C@@H](NC(=O)c1cc(C)on1)C(C)C)Cc1ccc(F)cc1 [AG7088]
- EC50 (HRV): 0.013 µM
- EC50 (EV71 [2]; EV71): 1.67 µM

Compound: Cc1cc(C(=O)NC(Cc2ccc(F)cc2)C(=O)NC(CC2CCCNC2=O)C2OC(=O)N(C(C)C)C2=N)no1 (stereo not shown) [FIOMC]
- Ki (EV71 3C^pro [3]): 0.033 ± 0.008 µM
- EC50 [4]: 0.067 ± 0.001 µM
- EC50 (EV71-luciferase virus [5]): 0.092 ± 0.003 µM
- EC50 (EV71-luciferase virus [6]): 0.093 ± 0.007 µM
- EC50 (EV71-luciferase virus [7]): 0.104 ± 0.008 µM
- Cytotoxicity (RD cells): no apparent cytotoxic effect
- Cytotoxicity (HEK-293T cells): no apparent cytotoxic effect
- Cytotoxicity (VeroE6 cells): no apparent cytotoxic effect
- EC50 (EV71-A): 0.096 ± 0.001 µM
- EC50 (EV71-B): 0.102 ± 0.009 µM
- EC50 (EV71-C): 0.075 ± 0.003 µM
- EC50 (CVA16): 0.125 ± 0.002 µM
- EC50 (CVB3): 0.08 ± 0.004 µM
- EC50 (five viral strains): 0.08 to 0.125 µM
- replication of EV71-GFP in phenotype screen (EV71-GFP): positive results
- expression of EV71 VP1 (EV71 VP1): inhibited
- inhibitory effect by time of addition (EV71-luciferase virus [8]): valid inhibitory effects regardless of the time
- effect on replicon (pEV71-replicon RNA): impacted the virus replication stage
- hydrolysis of 3BC by 3C^pro (EV71 3C^pro [9]): distinctly restrained the hydrolysis
- resistance mutation after continuous culture (EV71 [10]): no mutation of EV71 virus
- half-life [t1/2] in human plasma [1]: exceed 120 min
- t1/2 in mouse plasma [11]: exceed 120 min

Compound: CCCN1C(=N)C(C(CC2CCCNC2=O)NC(=O)C(Cc2ccc(F)cc2)NC(=O)c2cc(C)on2)OC1=O (stereo not shown) [FOPMC]
- Ki (EV71 3C^pro [3]): 0.083 ± 0.001 µM
- EC50 [4]: 0.123 ± 0.004 µM
- EC50 (EV71-luciferase virus [5]): 0.244 ± 0.012 µM
- EC50 (EV71-luciferase virus [6]): 0.299 ± 0.028 µM
- EC50 (EV71-luciferase virus [7]): 0.202 ± 0.015 µM
- Cytotoxicity (RD cells): no apparent cytotoxic effect
- Cytotoxicity (HEK-293T cells): no apparent cytotoxic effect
- Cytotoxicity (VeroE6 cells): no apparent cytotoxic effect
- EC50 (EV71-A): 0.115 ± 0.002 µM
- EC50 (EV71-B): 0.135 ± 0.004 µM
- EC50 (EV71-C): 0.128 ± 0.009 µM
- EC50 (CVA16): 0.217 ± 0.014 µM
- EC50 (CVB3): 0.21 ± 0.005 µM
- replication of EV71-GFP in phenotype screen (EV71-GFP): positive results
- expression of EV71 VP1 (EV71 VP1): inhibited
- inhibitory effect by time of addition (EV71-luciferase virus [8]): valid inhibitory effects regardless of the time
- effect on replicon (pEV71-replicon RNA): impacted the virus replication stage
- hydrolysis of 3BC by 3C^pro (EV71 3C^pro [9]): distinctly restrained the hydrolysis
- resistance mutation after continuous culture (EV71 [10]): no mutation of EV71 virus
- half-life [t1/2] in human plasma [1]: exceed 120 min
- t1/2 in mouse plasma [11]: exceed 120 min

Compound: O=c1c(O)c(-c2ccc(O)c(O)c2)oc2cc(O)ccc12 [Fisetin]
- EC50 (EV71 [2]; anti-EV71 activity): 85 µM

Compound: CCON=Cc1ccc(OCCC(C)CCN2CCN(c3ccncc3)C2=O)cc1 (stereo not shown) [GPP3, reference compound]
- inhibitory effect by time of addition (EV71-luciferase virus [8]): dramatically decreased from 4 hpi

Compound: O=c1cc(-c2ccc(O)c(O)c2)oc2cc(O[C@@H]3O[C@H](CO)[C@@H](O)[C@H](O)[C@H]3O)cc(O)c12 [Luteoloside]
- EC50 (EV71 [2]; cytopathy caused by EV71 infection): 430 µM

Compound: Cc1cc(CCCOc2c(C)cc(-c3noc(C(F)(F)F)n3)cc2C)on1 [pleconaril]
- EC50 (EV-D68): 0.43 µM

Compound: O=c1c(O)c(-c2ccc(O)c(O)c2)oc2cc(O)cc(O)c12 [quercetin]
- EC50 (EV71 [2]; EV71): 12.1 µM

Compound: C[C@@H]1O[C@@H](OC[C@H]2O[C@@H](Oc3c(-c4ccc(O)c(O)c4)oc4cc(O)cc(O)c4c3=O)[C@H](O)[C@@H](O)[C@@H]2O)[C@H](O)[C@H](O)[C@H]1O [rutin]
- EC50 (EV71 [2]; anti-EV71 activity): 110 µM
